According to paper PMC4256282, “Profound Activity of the Anti-cancer Drug Bortezomib against Echinococcus multilocularis Metacestodes Identifies the Proteasome as a Novel Drug Target for Cestodes” (PLoS Neglected Tropical Diseases, 2014):

Experiments:
[1] = target: T1, proteasome subunit beta 5 of E. multilocularis (EmPSMB5, EmuJ_000590200_1) (Echinococcus multilocularis, UniProt A0A068Y5K9); test: biochemical
T1 sequence (A0A068Y5K9 66-269): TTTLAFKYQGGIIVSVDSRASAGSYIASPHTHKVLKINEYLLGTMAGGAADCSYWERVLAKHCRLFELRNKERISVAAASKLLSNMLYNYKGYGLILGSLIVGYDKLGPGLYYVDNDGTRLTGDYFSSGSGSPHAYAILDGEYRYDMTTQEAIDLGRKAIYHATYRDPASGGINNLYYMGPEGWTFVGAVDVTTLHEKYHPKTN

bovine chymotrypsin = bovine chymotrypsin (Bos taurus, UniProt P00766); test: in-gel fluorescent zymography with SLLVT-AMC, chymotrypsin […] ng per lane, single BTZ concentration; assay type: biochemical

SMILES: CC(C)C[C@H](NC(=O)[C@H](Cc1ccccc1)NC(=O)c1cnccn1)B(O)O [BTZ, bortezomib]
- IC50 [1]: 760 nM
- in-gel fluorescent zymography with SLLVT-AMC, chymotrypsin 5 ng per lane, single (bovine chymotrypsin): BTZ can inhibit also other targets, such as for example chymotrypsin (as shown in the control of Figure 7B)
